From patent US9629884B2, “Compositions and methods for increasing lifespan and health span” (GENEREX PHARMACEUTICALS, INC., priority 2009, dated 2017)

Assay: Blood glucose level in a diabetic patient (mercy treatment)
Type: in vivo, human
Details: Diamicron 80 mg, 2 tablets every morning, before OEGJ
Experimental: Based on the above-mentioned rationale, the possibility of using OEGJ for the treatment of diabetes was tested in diabetics on the basis of mercy treatment. A person was first diagnosed with diabetes before undergoing hemorrhoid surgery a year before treatment. Their blood glucose level at that time was 24.0 mmol/L. They were put on insulin treatment for a week and started to take diabetes medicine (Diamicron 80 mg, 2 tablets every morning under fasting condition).

Cc1ccc(S(=O)(=O)NC(=O)NN2CC3CCCC3C2)cc1 (stereo not shown) [Diamicron]
average blood glucose level during six-month period on the medication: 9.97 mmol/L
